This note sets out measurements from US9850133B2, “Green synthesis of reduced graphene oxide using Nigella sativa seed extract” (KING SAUD UNIVERSITY, priority 2016, dated 2017).

What all share (assay): Agar well diffusion assay, zone of inhibition
Type in all cases: cell-based
What all share (settings): samples at 100 μl, beyond the well diameter of 6 mm, mean±S.D.
(In general: In agar diffusion tests the substance spreads into inoculated agar from a disc or well.)

For experiment [1], the system named is Escherichia coli (RCMB 010054). As to the method: (§1) Antimicrobial activity of the reduced graphene oxide (rGO) nanoparticles was determined using the agar well diffusion assay method as described by Holder and Boyce, 1994. Three bacterial strains (two gram positive and one gram negative) and one yeast strain, namely, Bacillis subtilis (RCMB 010067), Staphylococcus pneumoniae (RCMB 010011), Escherichia coli (RCMB 010052), and Aspergillus fumigatus (RCMB 02568) were used for the antimicrobial assay.
(§2) The tested organisms were sub-cultured on nutrient agar medium (Oxoid laboratories, UK) for bacteria and Sabouraud dextrose agar (Oxoid laboratories, UK) for fungi. Ampicillin and Gentamicin were used as positive control for gram positive and gram negative bacteria, respectively, while Amphotericin B was used for fungi. The plates were done in triplicates. Bacterial cultures were incubated at 37° C. for 24 h, while the fungal cultures were incubated at 25-30° C. for 3-7 days. Antimicrobial activity was determined by measuring the zone of inhibition [A. Agwa, (2000)]. Samples were tested at a concentration of 100 μl; Data are expressed in the form of (M±S.D.): mean±standard deviation; Diameter of the inhibition zone (mm) beyond the well diameter of 6 mm; NT: not tested; NA: no activity.

Experiment [2] has as its system Pseudomonas aeruginosa (RCMB 010045).
Experiment [3] concerns Candida albicans (RCMB 05038).
The test system of experiment [4] is Aspergillus fumigatus (RCMB 02567). As to the method:
as §1, §2

The subject of experiment [5] is Bacillis subtilis (RCMB 010068). As to the method:
as §1, §2

The test system of experiment [6] is Streptococcus pneumoniae (RCMB 010011). As to the method:
as §1, §2

Take Gentamicin: the “Diameter of the inhibition zone” value in experiment [1] turned out to be 20.3 ± 0.58 mm; in experiment [2] it was 16.0 ± 1.0 mm.

In the case of `C[C@@H]1[C@H](O)[C@@H](C)/C=C/C=C/C=C/C=C/C=C/C=C/C=C/[C@H](O[C@@H]2O[C@H](C)[C@@H](O)[C@H](N)[C@@H]2O)C[C@@H]2O[C@](O)(C[C@@H](O)C[C@@H](O)[C@H](O)CC[C@@H](O)C[C@@H](O)CC(=O)O[C@H]1C)C[C@H](O)[C@H]2C(=O)O` [Amphotericin B], the “Diameter of the inhibition zone” value came to 22.7 ± 1.5 mm in experiment [3] and 21.7 ± 1.5 mm in experiment [4].

Consider `CC1(C)S[C@@H]2[C@H](NC(=O)[C@H](N)c3ccccc3)C(=O)N2[C@H]1C(=O)O` [Ampicillin], for which the “Diameter of the inhibition zone” value in experiment [5] was 31.3 ± 1.5 mm; in experiment [6], 21.0 ± 1.0 mm.
